Values quoted from earlier work in patent US20180000827A1 (SYNTHON B.V., priority 2014, published 2018).

- solubility dependence on pH: highly dependent upon pH
SMILES: COc1cc2ncnc(Nc3ccc(F)c(Cl)c3)c2cc1OCCCN1CCOCC1 [Gefitinib, 4-(3-chloro-4-fluorophenylamino)-7-methoxy-6-[3-(4-morpholinyl)propoxy] quinazoline]
